Drawing on US20260022142A1, “MACROCYCLIC IMMUNOMODULATORS” (Bristol-Myers Squibb Company, priority 2022, published 2026), this text covers IC50 for twelve compounds.

The structures appear in SMILES notation. Bridge positions count the residues as written; N and C are the ends. Square brackets hold non-standard residues; d marks the D form. Peptide text beside a SMILES is read from it. * marks the point of attachment. Tyr(3,5-F2) = N[C@@H](Cc1cc(F)c(O)c(F)c1)C(=O)O; Phe(4-COOH) = N[C@@H](Cc1ccc(C(=O)O)cc1)C(=O)O; Tyr(3-Cl) = N[C@@H](Cc1ccc(O)c(Cl)c1)C(=O)O; Bip = N[C@@H](Cc1ccc(-c2ccccc2)cc1)C(=O)O; Phe(3-CN) = N#Cc1cccc(C[C@H](N)C(=O)O)c1; Phe(3-F) = N[C@@H](Cc1cccc(F)c1)C(=O)O; Phe(3-Me) = Cc1cccc(C[C@H](N)C(=O)O)c1; Phe(4-Me) = Cc1ccc(C[C@H](N)C(=O)O)cc1; 3Pal = N[C@@H](Cc1cccnc1)C(=O)O; 4Pal = N[C@@H](Cc1ccncc1)C(=O)O; Cha = N[C@@H](CC1CCCCC1)C(=O)O; Carboxymethyl = O=C(O)C*; Orn = NCCC[C@H](N)C(=O)O; Aun = NCCCCCCCCCCC(=O)O; Dab = NCC[C@H](N)C(=O)O; Dap = NC[C@H](N)C(=O)O; AEEA = NCCOCCOCC(=O)O

Broadly, the IC50 is the concentration needed to halve the response being measured.

The target of this experiment is T1, PD-1/PD-L1 interaction (PE-labeled human PD-L1-Ig binding to Jurkat cell line over-expressing human PD-1) (Homo sapiens, UniProt Q15116).
T1 construct: expressed in transfected cells; host or cells: Jurkat
T1 sequence (Q15116 25-288): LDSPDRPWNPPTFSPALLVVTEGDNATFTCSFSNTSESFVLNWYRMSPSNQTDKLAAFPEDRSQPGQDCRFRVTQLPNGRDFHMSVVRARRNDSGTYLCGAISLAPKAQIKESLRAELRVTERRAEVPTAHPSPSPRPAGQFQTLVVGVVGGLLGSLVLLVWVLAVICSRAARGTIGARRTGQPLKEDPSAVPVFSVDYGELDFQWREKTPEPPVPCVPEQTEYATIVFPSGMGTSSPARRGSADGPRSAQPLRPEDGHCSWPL
As to the kind of experiment: Jurkat-PD-1 Cell Binding High-Content Screening Assay (CBA). It is filed as cell-based. The note with it: Jurkat cell line over-expressing human PD-1; PE-labeled PD-L1-Ig 20 nM final; read-out: Jurkat hPD1-PDL1 IC50. The essentials: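 Human PD-L1-Ig carrying a covalent PE label on its Ig tag serves as the probe, applied at 20 nM final to compound-treated (2 h, 37° C) Jurkat-hPD-1 cells in medium with 10% fetal calf serum. After one hour, fixation and nuclear staining precede high-content image analysis.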
Regarding `Cc1cccc(C[C@@H]2NC(=O)[C@H](CC(=O)O)NC(=O)[C@H](Cc3ccc(OCC(=O)O)cc3)NC(=O)[C@H](CN)NC(=O)CSC[C@@H](C(=O)N[C@@H](CCN)C(=O)NCCOCCOCC(=O)NCCCCCCCCCCC(=O)O)NC(=O)[C@H](CCCN)NC(=O)[C@H](C(C)C)NC(=O)[C@H](CC3CCCCC3)NC(=O)[C@H](CCN)NC(=O)[C@@H](CC(C)C)NC(=O)[C@H](CCCN)NC(=O)[C@H](Cc3cccc(C#N)c3)NC(=O)[C@H](Cc3ccc(-c4ccccc4)cc3)NC(=O)[C@H](Cc3ccc(O)cc3)NC2=O)c1` [Compound 2051] ({CH2CO}-[Dap]Y(Carboxymethyl)D[Phe(3-Me)]Y[Bip][Phe(3-CN)][Orn][dL][Dab][Cha]V[Orn]C[Dab][AEEA][Aun]-OH; thioether N-14), the concentration for half-maximal inhibition (IC50) was 32.6 nM.
Take `Cc1cccc(C[C@@H]2NC(=O)[C@H](CC(=O)O)NC(=O)[C@H](Cc3ccc(OCC(=O)O)cc3)NC(=O)[C@H](CN)NC(=O)CSC[C@@H](C(=O)N[C@@H](CCN)C(=O)NCCOCCOCC(=O)NCCCCCCCCCCC(=O)O)NC(=O)[C@H](CCCN)NC(=O)[C@H](C(C)C)NC(=O)[C@H](CC3CCCCC3)NC(=O)[C@H](CCN)NC(=O)[C@@H](CC(C)C)NC(=O)[C@H](CCCN)NC(=O)[C@H](Cc3cccc(F)c3)NC(=O)[C@H](Cc3ccc(-c4ccccc4)cc3)NC(=O)[C@H](Cc3ccc(O)cc3)NC2=O)c1` [Compound 2052] ({CH2CO}-[Dap]Y(Carboxymethyl)D[Phe(3-Me)]Y[Bip][Phe(3-F)][Orn][dL][Dab][Cha]V[Orn]C[Dab][AEEA][Aun]-OH; thioether N-14): the IC50 was found to be 14.7 nM.
For `Cc1cccc(C[C@@H]2NC(=O)[C@H](CC(=O)O)NC(=O)[C@H](Cc3ccc(OCC(=O)O)cc3)NC(=O)[C@H](CN)NC(=O)CSC[C@@H](C(=O)N[C@@H](CCN)C(=O)NCCOCCOCC(=O)NCCCCCCCCCCC(=O)O)NC(=O)[C@H](CCCN)NC(=O)[C@H](C(C)C)NC(=O)[C@H](CC3CCCCC3)NC(=O)[C@H](CCN)NC(=O)[C@@H](CC(C)C)NC(=O)[C@H](CCCN)NC(=O)[C@H](Cc3ccncc3)NC(=O)[C@H](Cc3ccc(-c4ccccc4)cc3)NC(=O)[C@H](Cc3ccc(O)cc3)NC2=O)c1` [Compound 2053] ({CH2CO}-[Dap]Y(Carboxymethyl)D[Phe(3-Me)]Y[Bip][4Pal][Orn][dL][Dab][Cha]V[Orn]C[Dab][AEEA][Aun]-OH; thioether N-14) the value was 6.9 nM; for `Cc1ccc(C[C@@H]2NC(=O)[C@H](Cc3ccc(-c4ccccc4)cc3)NC(=O)[C@H](Cc3ccc(O)cc3)NC(=O)[C@H](Cc3cccc(C)c3)NC(=O)[C@H](CC(=O)O)NC(=O)[C@H](Cc3ccc(OCC(=O)O)cc3)NC(=O)[C@H](CN)NC(=O)CSC[C@@H](C(=O)N[C@@H](CCN)C(=O)NCCOCCOCC(=O)NCCCCCCCCCCC(=O)O)NC(=O)[C@H](CCCN)NC(=O)[C@H](C(C)C)NC(=O)[C@H](CC3CCCCC3)NC(=O)[C@H](CCN)NC(=O)[C@@H](CC(C)C)NC(=O)[C@H](CCCN)NC2=O)cc1` [Compound 2054] ({CH2CO}-[Dap]Y(Carboxymethyl)D[Phe(3-Me)]Y[Bip][Phe(4-Me)][Orn][dL][Dab][Cha]V[Orn]C[Dab][AEEA][Aun]-OH; thioether N-14), 12.9 nM.
For `Cc1cccc(C[C@@H]2NC(=O)[C@H](CC(=O)O)NC(=O)[C@H](Cc3ccc(OCC(=O)O)cc3)NC(=O)[C@H](CN)NC(=O)CSC[C@@H](C(=O)N[C@@H](CCN)C(=O)NCCOCCOCC(=O)NCCCCCCCCCCC(=O)O)NC(=O)[C@H](CCCN)NC(=O)[C@H](C(C)C)NC(=O)[C@H](CC3CCCCC3)NC(=O)[C@H](CCN)NC(=O)[C@@H](CC(C)C)NC(=O)[C@H](CCCN)NC(=O)[C@H](Cc3cccnc3)NC(=O)[C@H](Cc3ccc(-c4ccccc4)cc3)NC(=O)[C@H](Cc3ccc(O)cc3)NC2=O)c1` [Compound 2055] ({CH2CO}-[Dap]Y(Carboxymethyl)D[Phe(3-Me)]Y[Bip][3Pal][Orn][dL][Dab][Cha]V[Orn]C[Dab][AEEA][Aun]-OH; thioether N-14) the value was 7.9 nM; for `COc1ccc(C[C@@H]2NC(=O)[C@H](Cc3ccc(-c4ccccc4)cc3)NC(=O)[C@H](Cc3ccc(O)cc3)NC(=O)[C@H](Cc3cccc(C)c3)NC(=O)[C@H](CC(=O)O)NC(=O)[C@H](Cc3ccc(OCC(=O)O)cc3)NC(=O)[C@H](CN)NC(=O)CSC[C@@H](C(=O)N[C@@H](CCN)C(=O)NCCOCCOCC(=O)NCCCCCCCCCCC(=O)O)NC(=O)[C@H](CCCN)NC(=O)[C@H](C(C)C)NC(=O)[C@H](CC3CCCCC3)NC(=O)[C@H](CCN)NC(=O)[C@@H](CC(C)C)NC(=O)[C@H](CCCN)NC2=O)cc1` [Compound 2056] ({CH2CO}-[Dap]Y(Carboxymethyl)D[Phe(3-Me)]Y[Bip]Y(Me)[Orn][dL][Dab][Cha]V[Orn]C[Dab][AEEA][Aun]-OH; thioether N-14), 12.6 nM.
As for `Cc1cccc(C[C@@H]2NC(=O)[C@H](CC(=O)O)NC(=O)[C@H](Cc3ccc(OCC(=O)O)cc3)NC(=O)[C@H](CN)NC(=O)CSC[C@@H](C(=O)N[C@@H](CCN)C(=O)NCCOCCOCC(=O)NCCCCCCCCCCC(=O)O)NC(=O)[C@H](CCCN)NC(=O)[C@H](C(C)C)NC(=O)[C@H](CC3CCCCC3)NC(=O)[C@H](CCN)NC(=O)[C@@H](CC(C)C)NC(=O)[C@H](CCCN)NC(=O)[C@H](Cc3ccc(O)c(Cl)c3)NC(=O)[C@H](Cc3ccc(-c4ccccc4)cc3)NC(=O)[C@H](Cc3ccc(O)cc3)NC2=O)c1` [Compound 2057] ({CH2CO}-[Dap]Y(Carboxymethyl)D[Phe(3-Me)]Y[Bip][Tyr(3-Cl)][Orn][dL][Dab][Cha]V[Orn]C[Dab][AEEA][Aun]-OH; thioether N-14), the IC50 is 8 nM.
For the compound `Cc1cccc(C[C@@H]2NC(=O)[C@H](CC(=O)O)NC(=O)[C@H](Cc3ccc(OCC(=O)O)cc3)NC(=O)[C@H](CN)NC(=O)CSC[C@@H](C(=O)N[C@@H](CCN)C(=O)NCCOCCOCC(=O)NCCCCCCCCCCC(=O)O)NC(=O)[C@H](CCCN)NC(=O)[C@H](C(C)C)NC(=O)[C@H](CC3CCCCC3)NC(=O)[C@H](CCN)NC(=O)[C@@H](CC(C)C)NC(=O)[C@H](CCCN)NC(=O)[C@H](Cc3cc(F)c(O)c(F)c3)NC(=O)[C@H](Cc3ccc(-c4ccccc4)cc3)NC(=O)[C@H](Cc3ccc(O)cc3)NC2=O)c1` [Compound 2058] ({CH2CO}-[Dap]Y(Carboxymethyl)D[Phe(3-Me)]Y[Bip][Tyr(3,5-F2)][Orn][dL][Dab][Cha]V[Orn]C[Dab][AEEA][Aun]-OH; thioether N-14), the IC50 came to 4.7 nM.
The result for `Cc1cccc(C[C@@H]2NC(=O)[C@H](CC(=O)O)NC(=O)[C@H](Cc3ccc(OCC(=O)O)cc3)NC(=O)[C@H](CN)NC(=O)CSC[C@@H](C(=O)N[C@@H](CCN)C(=O)NCCOCCOCC(=O)NCCCCCCCCCCC(=O)O)NC(=O)[C@H](CCCN)NC(=O)[C@H](C(C)C)NC(=O)[C@H](CC3CCCCC3)NC(=O)[C@H](CCN)NC(=O)[C@@H](CC(C)C)NC(=O)[C@H](CCCN)NC(=O)[C@H](Cc3ccc(O)cc3)NC(=O)[C@H](Cc3ccc(-c4ccccc4)cc3)NC(=O)[C@H](Cc3ccc(OCC(=O)O)cc3)NC2=O)c1` [Compound 2059] ({CH2CO}-[Dap]Y(Carboxymethyl)D[Phe(3-Me)]Y(Carboxymethyl)[Bip]Y[Orn][dL][Dab][Cha]V[Orn]C[Dab][AEEA][Aun]-OH; thioether N-14) reads 4 nM; that for `Cc1cccc(C[C@@H]2NC(=O)[C@H](CC(=O)O)NC(=O)[C@H](Cc3ccc(OCC(=O)O)cc3)NC(=O)[C@H](CN)NC(=O)CSC[C@@H](C(=O)N[C@@H](CCN)C(=O)NCCOCCOCC(=O)NCCCCCCCCCCC(=O)O)NC(=O)[C@H](CCCN)NC(=O)[C@H](C(C)C)NC(=O)[C@H](CC3CCCCC3)NC(=O)[C@H](CCN)NC(=O)[C@@H](CC(C)C)NC(=O)[C@H](CCCN)NC(=O)[C@H](Cc3ccc(O)cc3)NC(=O)[C@H](Cc3ccc(-c4ccccc4)cc3)NC(=O)[C@H](Cc3ccc(C(=O)O)cc3)NC2=O)c1` [Compound 2060] ({CH2CO}-[Dap]Y(Carboxymethyl)D[Phe(3-Me)][Phe(4-COOH)][Bip]Y[Orn][dL][Dab][Cha]V[Orn]C[Dab][AEEA][Aun]-OH; thioether N-14), 4.3 nM.
For the compound `Cc1cccc(C[C@@H]2NC(=O)[C@H](CC(=O)O)NC(=O)[C@H](Cc3ccc(OCC(=O)O)cc3)NC(=O)[C@H](CN)NC(=O)CSC[C@@H](C(=O)N[C@@H](CCN)C(=O)NCCOCCOCC(=O)NCCCCCCCCCCC(=O)O)NC(=O)[C@H](CCCN)NC(=O)[C@H](C(C)C)NC(=O)[C@H](CC3CCCCC3)NC(=O)[C@H](CCN)NC(=O)[C@@H](CC(C)C)NC(=O)[C@H](CCCN)NC(=O)[C@H](Cc3ccc(OCC(=O)O)cc3)NC(=O)[C@H](Cc3ccc(-c4ccccc4)cc3)NC(=O)[C@H](C(C)C)NC2=O)c1` [Compound 2061] ({CH2CO}-[Dap]Y(Carboxymethyl)D[Phe(3-Me)]V[Bip]Y(Carboxymethyl)[Orn][dL][Dab][Cha]V[Orn]C[Dab][AEEA][Aun]-OH; thioether N-14), the 50% inhibitory concentration (IC50) turned out to be 3.9 nM.
The result for `Cc1cccc(C[C@@H]2NC(=O)[C@H](CC(=O)O)NC(=O)[C@H](Cc3ccc(OCC(=O)O)cc3)NC(=O)[C@H](CN)NC(=O)CSC[C@@H](C(=O)N[C@@H](CCN)C(=O)NCCOCCOCC(=O)NCCCCCCCCCCC(=O)O)NC(=O)[C@H](CCCN)NC(=O)[C@H](C(C)C)NC(=O)[C@H](CC3CCCCC3)NC(=O)[C@H](CCN)NC(=O)[C@@H](CC(C)C)NC(=O)[C@H](CCCN)NC(=O)[C@H](Cc3ccc(C(=O)O)cc3)NC(=O)[C@H](Cc3ccc(-c4ccccc4)cc3)NC(=O)[C@H](C(C)C)NC2=O)c1` [Compound 2062] ({CH2CO}-[Dap]Y(Carboxymethyl)D[Phe(3-Me)]V[Bip][Phe(4-COOH)][Orn][dL][Dab][Cha]V[Orn]C[Dab][AEEA][Aun]-OH; thioether N-14) reads 7 nM.
